Assay results published in article PMC5430599, “Antiplasmodial dihetarylthioethers target the coenzyme A synthesis pathway in Plasmodium falciparum erythrocytic stages” (Malaria Journal, 2017).
Values after ≈ are worked out from the molar mass of the structure shown. Where two headings read alike, the source gives them in different places.

Columns and labels:
[1] = system: asexual erythrocytic stages of transgenic NF54-luc P. falciparum; test: Luciferase-based viability screening for anti-malarial activity; type: cell-based, Plasmodium falciparum; settings: >50% inhibition of viability rated active; for inhibition at 3 µM: Plasmodium falciparum, NF54, 48 h, read-out: % inhibition, PfNF54-Luc at 3 µM, 3 µM, 48 h
Procedure: Asexual erythrocytic stages of transgenic NF54-luc P. falciparum were used for the luciferase-based viability assay. These parasites constitutively express high levels of luciferase. The parasites were cultured as described previously. Parasite culture with parasitaemia of 0.5–1% was dispensed in triplicate into white 96-well flat-bottom plates (each well contains 250 µL) (NUNC, Roskilde, […], 90% N2, 5% CO2, and 5% O2). 0.01% DMSO was included in the untreated infected RBC cultures as negative control, since the compounds stock initially was diluted in DMSO and each treatment well also contained 0.01% DMSO. Subsequently, 100 µL RPMI1640 media was removed from each well and a 100 µL volume of the Bright-Glo® substrate solution added to each well. The resultant cleavage product of the reaction, light, was measured using a FLUOROSKAN FL luminometer (Thermo), to ascertain viable parasites. Untreated cultures were used as negative controls and to calculate the inhibition rate (0% inhibition of parasite growth). Blasticidin (Sigma-Aldrich, St. Louis, MO, USA), used for selection of transfected parasites, was included as a positive control on each plate and gave >90% inhibition of parasite growth at concentration 2 µg/mL. Compounds with >50% inhibition of viability were rated as actives. Experiments were performed in triplicate and were repeated at least twice.

[2] = Aqueous thermodynamic solubility, miniaturized shake-flask method with HPLC; type: physicochemical; settings: for solubility thermodynamic / solubility: aqueous phosphate buffer, 25 °C, pH 7.4, aqueous buffer, thermodynamic from solid
Procedure: The aqueous solubility was determined using a miniaturized shake-flask-method. In brief, the compound (0.25–1.0 mg) was incubated in a Whatman Mini-Uniprep vial with aqueous phosphate buffer, pH 7.4, (300 µL) in an incubation shaker (IKA® KS 3000 ic control, Staufen, Germany) at 25 °C, 400 rpm. Presence of undissolved compound was checked at 24 and 48 h. After 24, 48, or 72 h of shaking, the filter plunger was punched into the vial and the concentration in the supernatant was determined by HPLC (AUC method, isocratic HPLC, at specific λmax as indicated in the Additional file 2). For the calibration, at least three different dilutions of the compounds from DMSO stock solutions diluted with ACN were quantified. Preparation of buffer pH 7.4: to a solution of Na2HPO4∙2 H2O (290 mg), K2HPO4 (20 mg) and NaCl (808 mg) in water (ad 100.0 mL), 12% aqueous HCl was added dropwise until the pH reached 7.4. In the case of 3a the concentration in the supernatant was below the limit of quantification. […] Further details of the solubility testing methods are described in Additional file 2, including calibration concentration ranges, composition of chromatographic eluents, and wavelength for measurement of absorbance.
Two stock solutions of each compound with a concentration of 10 mM (except for 8g: 1 mM) were prepared. Three dilutions with ACN were prepared (concentration range: 3d: 100 µM – […]
8g: 10 µM – 0.3 µM; 8k: 100 µM – 10 µM) from the stock solutions of the test compounds and measured as duplicates by HPLC (isocratic elution: solvent indicated in Additional file 2, Table, injection volume: indicated in Additional file 2, Table, flow rate: 1.000 mL/min, column temperature: 40 °C, time of detection: 8 min, detection by DAD at specific λmax as indicated in Additional file 2, Table). The area under the curve (% AUC) of the substance peak was determined and together with the respective concentration a linear calibration graph was created with Microsoft Excel (2010, Microsoft Corporation) for every compound.
Additional file 2, Table Af1: Solvents for isocratic elution, injection volumes and specific λmax […]
ID solvent injection volume [µL] λmax [nm]
Sample preparation and measurement of compound solubility
Samples of test compounds (0.25‐1.0 mg) were placed in Whatman‐Uni‐Prep® vials and aqueous phosphate buffer, pH 7.4 (300 µL, composition is indicated in Additional file 2, Table Af1) was added. The presence of undissolved compound was a requirement to determine the thermodynamic solubility. The vials were capped with the appropriate filter, […]
Additionally the vials were sealed with Parafilm M (Bemis Flexible Packaging, Neenah, WI, USA). The samples were incubated in an incubation shaker (IKA® KS 3000 ic control, Staufen, Germany) at 400 rpm and 25 °C for […]
24‐72 h. The presence of undissolved compound was checked at 24 and 48 h. Measurement of the samples was performed after 24 h, 48 h and 72 h; he filter plunger was punched into the vial and the concentration in the supernatant was determined by HPLC using the same methods as for the calibration solutions (Additional file 2, Table). All samples were measured in triplicate. By determination of the area under the curve (% AUC) of the substance and the specific linear calibration graph, the concentration of every compound in aqueous buffer solution was calculated. By comparison of the samples after 24 h and 48 h it was checked if equilibrium had been achieved after 24 h; if not, the samples were compared after 48 h and 72 h to check if equilibrium had been achieved after 48 h. In the case of 3a the concentration in the supernatant was below the limit of quantification. Therefore the lowest […]
Additional file 2, Table Af1: Composition of phosphate buffer pH 7.4 for determination of aqueous solubility. Modified according to Ph. Eur.8 […]
a Adjustment to pH 7.4 was carried out using a pH meter equipped with a glass electrode. […]
Lüddens, H., Synthesis of GABA A receptor agonists and evaluation of their α‐ […]

[3] = aqueous buffer pH 7.4, shake flask
[4] = thermodynamic solubility, aqueous buffer pH 7.4, 25 °C, equilibrium after 24 h (c) or 48 h (d) per footnote, read-out: S0, exp
[5] = thermodynamic solubility, aqueous buffer pH 7.4, 25 °C, equilibrium after 24 h (c) or 48 h (d) per footnote

SMILES | % inhibition, PfNF54-Luc at 3 µM ([1]; 3 µM, 48 h) [%] | inhibition at 3 µM [1] [%] | Log S0, exp [2, 3] | solubility thermodynamic [2, 4] [µM] | solubility thermodynamic ([2]; aqueous buffer pH 7.4, shake flask, read-out: Log S0, exp (converted)) [µM] | solubility ([2]; pH 7.4, shake flask) [µM] | S0, exp [µM] [2, 5] | aqueous solubility ([2]; pH 7.4, shake flask, listed as 8e (KuWei173)) [mM]
c1coc(-c2nnc(Sc3ncnc4sccc34)o2)c1 [Compound 3a] | 80.8 ± 0.5 | 80 | <−6.00 | < 1 | – | – | – | –
Cn1ccnc1Sc1ncnc2sccc12 [Compound 8c] | – | 96.5 ± 1.6 | – | – | 1780 (≈ 442 µg/mL) | > 1000 | 1780 µM·days | –
c1csc(Sc2ncnc3sccc23)n1 [Compound 8d] | – | 99.9 | −4.44 | 36.4 (≈ 9.15 µg/mL) | – | – | – | –
c1coc(Sc2ncnc3sccc23)n1 [Compound 8e] | – | 99.5 ± 0.5 | −2.88 | – | – | 1330 (≈ 313 µg/mL) | 1.33 × 10^3 c µM | > 1
Nc1nnc(Sc2ncnc3sccc23)s1 [Compound 8f] | – | 99.7 ± 0.1 | −5.36 | 4.4 (≈ 1.18 µg/mL) | – | – | – | –
c1ccc2[nH]c(Sc3ncnc4sccc34)nc2c1 [Compound 8g] | – | 95 ± 1.1 | −6.37 | – | – | – | – | –
c1cnc2[nH]c(Sc3ncnc4sccc34)nc2c1 [Compound 8k] | – | 98 ± 0.2 | −4.11 | 77 (≈ 22 µg/mL) | – | – | – | –
